The EC50 is the concentration that produces a half-maximal response.

Experimental findings from patent publication US9718851B2, “Deuterated nucleoside/tide derivatives” (Enanta Pharmaceuticals, Inc., priority 2014, dated 2017) are described below.

This experiment concerns HCV replicon RNA, genotype 1a (Huh-1a7 replicon cell line). Description: HCV Replicon Assay - qRT-PCR, genotype 1a replicon. As to conditions: Hepatitis C virus; HCV genotype 1a replicon, HCV RNA by qRT-PCR normalized to GAPDH RNA. It counts as cell-based, HCV (strain H77. From the text: HCV replicon cell lines (kindly provided by R. Bartenschlager) isolated from colonies as described by Lohman et al. (Lohman et al. (1999) Science 285: 110-113, expressly incorporated by reference in its entirety) and used for all experiments. One of the HCV replicon cell lines (strain Conl, genotype 1b) has the nucleic acid sequence set forth in EMBL Accession No.: AJ242651, the coding sequence of which is from nucleotides 1801 to 8406. Another replicon cell line (strain H77, genotype 1a) was constructed as described by Yi et al. (Yi et al. (2004) Journal of Virology 78(15):7904-15). The coding sequences of the published HCV replicons were synthesized and subsequently assembled in plasmids using standard molecular biology techniques.
One replicon cell line (“SGR 11-7”) stably expresses HCV replicon RNA, genotype 1b, which consists of (i) the HCV 5′UTR fused to the first 12 amino acids of the capsid protein, (ii) the neomycin phosphotransferase gene (neo), (iii) the IRES from encephalomyocarditis virus (EMCV), and (iv) HCV NS2 to NS5B genes and the HCV 3′UTR. Another replicon cell line (“Huh-1a7”) described by Yi et al. (Yi et al. (2004) Journal of Virology 78(15):7904-15, expressly incorporated by reference in its entirety) stably expresses HCV replicon RNA, genotype 1a, which consists of (i) the HCV 5′UTR fused to the first 12 amino acids of the capsid protein, (ii) the HIV tat protein, (iii) the neomycin phosphotransferase gene (neo), (iv) the IRES from encephalomyocarditis virus (EMCV), and (v) HCV NS3 to NS5B genes that harbor cell culture adaptive mutations (Q1067R, K1691R, S2204I) and the HCV 3′UTR. […]
EC50 values of single agent compounds were determined by HCV RNA detection using quantitative RT-PCR, according to the manufacturer's instructions, with a TAQMAN® One-Step RT-PCR Master Mix Reagents Kit (Cat# AB 4309169, Applied Biosystems) on an ABI Model 7500 thermocycler. EC50 values of combinations are similarly determined by HCV RNA detection using quantitative RT-PCR. The TAQMAN primers to use for detecting and quantifying HCV RNA obtained from Integrated DNA Technologies. HCV RNA is normalized to GAPDH RNA levels in drug-treated cells, which is detected and quantified using the Human GAPDH Endogenous Control Mix (Applied Biosystems, AB 4310884E). […] Chemical agent cytotoxicity is evaluated using an MTS assay according to the manufacturer's directions (Promega). […]
For the compound `[2H][C@@]1(O)[C@@H](CO[P@@](=O)(N[C@@H](C)C(=O)OC(C)C)Oc2ccccc2)O[C@@H](n2ccc(=O)[nH]c2=O)[C@]1(C)F` [Example 1], the EC50 lay in the range of 100 to 1000 nM.

Take `[2H][C@]1(CO[P@@](=O)(N[C@@H](C)C(=O)OC(C)C)Oc2ccccc2)O[C@@H](n2ccc(=O)[nH]c2=O)[C@](C)(F)[C@@H]1O` [Example 2]: the EC50 is 100 to 1000 nM.

For `[2H]C([2H])(O[P@@](=O)(N[C@@H](C)C(=O)OC(C)C)Oc1ccccc1)[C@H]1O[C@@H](n2ccc(=O)[nH]c2=O)[C@](C)(F)[C@@H]1O` [Example 3], the EC50 lay in the range of 100 to 1000 nM. In the case of `[2H]C([2H])(O[P@@](=O)(N[C@@H](C)C(=O)OC(C)C)Oc1ccccc1)[C@@]1([2H])O[C@@H](n2ccc(=O)[nH]c2=O)[C@](C)(F)[C@@H]1O` [Example 4] it was 100 to 1000 nM.
